# Test results from ChEMBL document CHEMBL1131134, “A novel class of adenosine A3 receptor ligands. 2. Structure affinity profile of a series of isoquinoline and quinazoline compounds” (J Med Chem, 1998).
# Assays:
# [1] = molecular target: T1, Adenosine receptor A1 (Rattus norvegicus) (UniProt P25099); assay: Antagonist activity by displacement of specific [3H]DPCPX binding in rat cortical membrane (Adenosine A1 receptor) at a Conc of […].; assay type: cell membranes
# T1 sequence (whole entry): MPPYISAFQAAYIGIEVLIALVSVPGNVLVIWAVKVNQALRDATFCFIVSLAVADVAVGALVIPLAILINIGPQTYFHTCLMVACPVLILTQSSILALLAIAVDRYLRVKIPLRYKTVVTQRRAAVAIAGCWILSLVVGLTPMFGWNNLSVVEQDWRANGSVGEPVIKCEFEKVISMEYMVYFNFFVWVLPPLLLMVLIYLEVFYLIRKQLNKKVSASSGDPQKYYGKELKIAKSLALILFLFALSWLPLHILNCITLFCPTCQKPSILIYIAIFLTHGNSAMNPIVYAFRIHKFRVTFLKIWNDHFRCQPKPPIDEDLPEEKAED
# [2] = molecular target: Adenosine receptor A2a (Rattus norvegicus) (UniProt P30543); assay: Antagonistic activity assayed by displacement of specific [3H]-CGS-21,680 binding in rat striatal membrane (adenosine A2A receptor) at a conc of […].; assay type: cell membranes; settings: Striatum
# [3] = Relative binding affinity for adenosine receptors A1 and A3 as ratio of Ki
# Chain of Adenosine receptor A2a (Rattus norvegicus) (P30543 whole entry): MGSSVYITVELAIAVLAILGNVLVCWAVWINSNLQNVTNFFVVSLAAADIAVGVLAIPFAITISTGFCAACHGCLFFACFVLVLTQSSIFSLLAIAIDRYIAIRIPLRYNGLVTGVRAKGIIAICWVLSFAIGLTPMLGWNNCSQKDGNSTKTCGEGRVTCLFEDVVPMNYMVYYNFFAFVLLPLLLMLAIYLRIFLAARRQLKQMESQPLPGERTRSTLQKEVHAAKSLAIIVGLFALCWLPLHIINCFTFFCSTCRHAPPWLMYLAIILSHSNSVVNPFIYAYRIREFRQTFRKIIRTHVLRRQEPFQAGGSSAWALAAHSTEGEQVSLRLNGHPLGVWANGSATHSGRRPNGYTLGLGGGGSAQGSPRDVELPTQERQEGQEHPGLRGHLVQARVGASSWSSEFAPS
Structure (SMILES),Displacement [1],Displacement [2],Ratio [3]
O=C(Nc1nc(-c2ccccn2)cc2ccccc12)c1ccc(Cl)cc1,11%,0%,–
COc1ccc(C(=O)Nc2nc(-c3ccccn3)cc3ccccc23)cc1,14%,0%,–
O=C(Nc1nc(-c2ccccn2)cc2ccccc12)c1ccc(Cl)c(Cl)c1,0%,0%,–
COc1ccc(C(=O)Nc2nc(-c3ccccn3)nc3ccccc23)cc1,41%,20%,–
CC(=O)Nc1nc(-c2ccccn2)nc2ccccc12,25%,17%,–
Oc1nc(-c2ccccn2)nc2ccccc12,16%,10%,–
Cc1cc(C)cc(C(=O)Nc2nc(-c3ccccn3)cc3ccccc23)c1,8%,0%,–
COc1ccc(C(=O)Nc2nc(-c3ccccn3)cc3ccccc23)cc1OC,41%,20%,–
O=C(Nc1nc(-c2ccccn2)nc2ccccc12)C(F)(F)F,8%,0%,–
O=C(Nc1nc(-c2ccccn2)nc2ccccc12)c1ccccc1,0%,2%,–
Cc1cccc(C)c1C(=O)Nc1nc(-c2ccccn2)cc2ccccc12,2%,0%,–
Cc1ccc(C(=O)Nc2nc(-c3ccccn3)cc3ccccc23)c(C)c1,14%,0%,–
O=C(c1ccccc1)N(C(=O)c1ccccc1)c1nc(-c2ccccn2)nc2ccccc12,3%,3%,–
Cc1ccc(C(=O)Nc2nc(-c3ccccn3)cc3ccccc23)cc1,37%,0%,–
O=C(c1ccccc1)N(C(=O)c1ccccc1)c1nc(-c2ccccn2)cc2ccccc12,–,27%,19
O=C(Cc1nc(-c2ccccn2)cc2ccccc12)c1ccccc1,–,22%,0.36
Cc1ccc(C)c(C(=O)Nc2nc(-c3ccccn3)cc3ccccc23)c1,29%,7%,–

# More lines, now with the values ahead:
Displacement [1],Displacement [2],Ratio [3],Structure (SMILES)
38%,48%,–,CC(C)C(=O)Nc1nc(-c2ccccn2)cc2ccccc12
21%,–,–,Oc1nc(-c2ccccn2)cc2ccccc12
38%,17%,–,N=CNc1nc(-c2ccccn2)nc2ccccc12
16%,0%,–,Cc1ccc(C(=O)Nc2nc(-c3ccccn3)cc3ccccc23)cc1C
–,42%,–,N=CNc1nc(-c2ccccn2)cc2ccccc12
22%,0%,–,COc1cccc(C(=O)Nc2nc(-c3ccccn3)cc3ccccc23)c1
42%,0%,–,O=C(Nc1nc(-c2ccccn2)cc2ccccc12)c1cccc(Cl)c1
–,0%,16,O=C(Nc1nc(-c2ccccn2)cc2ccccc12)c1ccccc1
35%,0%,–,Cc1cccc(C(=O)Nc2nc(-c3ccccn3)cc3ccccc23)c1
–,4%,–,N=C(Nc1nc(-c2ccccn2)cc2ccccc12)c1ccccc1
24%,18%,–,CC(=O)Nc1nc(-c2ccccn2)cc2ccccc12
